In patent US8828696B2, “Use of Penicillin G Procaine as a selective antimicrobial agent in the production of alcohol by fermentation” (Lallemand Specialites, Inc, priority 2008, dated 2014):

Test system: Saccharomyces cerevisiae yeast
Assay: Laboratory fermentation trial: formation of alcohol and lactic acid (HPLC)
Assay type: cell-based
Method: A study was conducted to determine the degree of impact of the fermentation antimicrobial Penicillin G Procaine and Penicillin G potassium during alcohol production by fermentation. The antimicrobial impact was inferred by conducting a series of fermentations and measuring if the above said antibiotics interfered with the cell growth and the fermentation function of Saccharomyces cerevisiae yeast used in the fermentation phase. This study provided analysis of what impact, if any, the Penicillin G Procaine or Penicillin G Potassium has on the yeast during lab scale fermentations, specifically BioFerm® XR yeast from North American Bioproducts Corporation (NABC). This study observed the ability of yeast to replicate and ferment a corn mash substrate with and without the presence of Penicillin G Procaine or Penicillin G Potassium. This study was set up in a series of fermentation vessels. All antibiotic concentrations were tested in triplicate. Cell counts were done on one flask for each treatment at 12, 24, 36 and 48 hours and testing of the fermentation reactions by HPLC was also performed at 12, 24, 36 and 48 hours. The experiment was set as follows: 3. Fermentations were set up using 31% solids corn mash using saccharifying enzymes and the following procedure: A. Yeast Conditioning: • 1. Add 2 g yeast to 10 ml sterile water for each 3 flasks to test, (14 g yeast to 70 ml water) into a sterile 250 ml flask and place in water bath set to 100° F. • 2. Incubate at 100° F. for 30 minutes with occasional mixing. • 3. Remove flasks from water bath and divide suspension between the all flasks for the trial. B. Fermentation Procedure • 1. To prepared mash, add the following. • a. Add 0.58 g urea/liter mash and mix. • b. Add 0.2 ml GA per liter and mix. • 2. Remove sample for background HPLC testing. • 3. Add antibiotic solution to labeled sterile 250 ml flasks. • 4. Add hydrated yeast suspension to mash and mix well. • 5. Add sterile stir bar to each flask and add about 150 ml mash into each 250 ml flask for a total of 21 flasks. • 6. Cover each flask with a gas trap in a sterilized stopper. • 7. Place in a 33° C. water bath with continuous mixing at 280 rpm at 75% power. • 8. Remove sample at 12 hr interval to perform cell count, viability and budding. • 9. Incubate sample up to 48 hours, enough time for complete fermentation • 10. Collect samples at the following times for cell counts and HPLC testing: 12 hours; 24 hours; 36 hours and 48 hours The proper functioning of the yeast is often attributed to the higher efficiency with which it can convert the sugars formed in a fermentation process to the desired alcohol. Also the number of yeast cells in a fermentation mix is an important factor as it will be entropically favored to convert the available sugar molecules to ethanol and carbon dioxide. The sugar in the fermentation mix apart from being converted to ethanol is also used by the yeast for its metabolism and growth and by the concerned “industry normal” Lactobacillus fermentum bacteria converting the sugar to lactic acid.

| Structure (SMILES) | % Lactic Acid (5 ppm, 12 hours) [%] | % wt EtOH (5 ppm, 12 hours) [% wt] | % Lactic Acid (5 ppm, 24 hours) [%] | % wt EtOH (5 ppm, 24 hours) [% wt] | % Lactic Acid (5 ppm, 36 hours) [%] | % wt EtOH (5 ppm, 36 hours) [% wt] | % Lactic Acid (5 ppm, 48 hours) [%] | % wt EtOH (5 ppm, 48 hours) [% wt] | % Lactic Acid (15 ppm, 12 hours) [%] | % wt EtOH (15 ppm, 12 hours) [% wt] | % Lactic Acid (15 ppm, 24 hours) [%] | % wt EtOH (15 ppm, 24 hours) [% wt] | % Lactic Acid (15 ppm, 36 hours) [%] | % wt EtOH (15 ppm, 36 hours) [% wt] | % Lactic Acid (15 ppm, 48 hours) [%] | % wt EtOH (15 ppm, 48 hours) [% wt] | % Lactic Acid (30 ppm, 12 hours) [%] | % wt EtOH (30 ppm, 12 hours) [% wt] | % Lactic Acid (30 ppm, 24 hours) [%] | % wt EtOH (30 ppm, 24 hours) [% wt] | also measured |
| --- | --- | --- | --- | --- | --- | --- | --- | --- | --- | --- | --- | --- | --- | --- | --- | --- | --- | --- | --- | --- | --- |
| CC1(C)S[C@@H]2[C@H](NC(=O)Cc3ccccc3)C(=O)N2[C@H]1C(=O)O.CCN(CC)CCOC(=O)c1ccc(N)cc1 [Penicillin G Procaine] | 0.082 | 6.21 | 0.098 | 9.24 | 0.108 | 11.14 | 0.104 | 11.94 | 0.085 | 6.16 | 0.099 | 9.13 | 0.106 | 11.13 | 0.099 | 11.98 | 0.081 | 6.34 | 0.098 | 9.16 | % Lactic Acid (30 ppm, 36 hours): 0.103%; % wt EtOH (30 ppm, 36 hours): 11.18 % wt; % Lactic Acid (30 ppm, 48 hours): 0.100%; % wt EtOH (30 ppm, 48 hours): 11.91 % wt |
| CC1(C)S[C@@H]2[C@H](NC(=O)Cc3ccccc3)C(=O)N2[C@H]1C(=O)[O-].[K+] [Penicillin G Potassium] | 0.083 | 6.16 | 0.100 | 9.12 | 0.108 | 11.12 | 0.104 | 11.89 | 0.081 | 6.05 | 0.100 | 9.15 | 0.105 | 11.05 | 0.100 | 11.92 | 0.082 | 6.07 | 0.096 | 9.13 | % Lactic Acid (30 ppm, 36 hours): 0.106%; % wt EtOH (30 ppm, 36 hours): 11.12 % wt; % Lactic Acid (30 ppm, 48 hours): 0.101%; % wt EtOH (30 ppm, 48 hours): 11.83 % wt |
